Source: patent publication US20100121105A1, “Composition and Method of synthesizing a biomolecule and its therapeutics applications” (priority 2009, published 2010)
Where two headings read alike, the source gives them in different places.

How the values were obtained:
[1] = tested on: volunteers; experiment: Oral administration of ex-vivo synthesized J-Factor to 11 volunteers, physical changes observed; details: 0.5 mg per 10 days (=1.5 mg/month), observed in each volunteer
Protocol: (§1) In one of the embodiment of the present invention L-arginine was chemically converted into J-Factor ex-vivo. Thus converted/synthetic produced ex-vivo J-Factor was orally administrated to a small group of 11 volunteers. Each volunteers were given 0.5 mg per 10 days (=1.5 mg/month) and photographs were taken in each case at the beginning and end of the trial to record the changes in their faces and heads.
These changes indicate that ex-vivo synthesized J-Factor functioned like GH and autocrine-paracrine IGF-1 and also stimulated IGF-1 production.

[2] = tested on: volunteers; experiment: Comparison of synthetic J-Factor and biosynthetic GH: complications, diabetogenicity, antigenicity; assay type: in vivo
Protocol: as §1
In fact all of the above mentioned changes help in preventing or limiting the aging signs. The advantage of using ex-vivo synthesized J-Factor of the present invention when compared to biosynthetic GH is shown in the comparative table below: […]

[3] = tested on: volunteers; details: biosynthetic GH, intra muscular administration, 3 time a week; stated as common knowledge; cited from earlier work
[4] = comparative table, oral administration 3 times a month, no test described

Row | Compound | Eye's central vision [1] | Fatty tissue e.g. in abdomen [1] | Hair growth [1] | Muscular hypertrophy [1] | Tone and color of facial skin [1] | Complications (Joint swelling, Carpal tunnel syndrome, Joint pain) ([2]; 11 volunteers, oral administration, 3 times a month) | Antigenicity [2, 4] | Diabetogenicity [2, 4] | Antigenicity [3] | Complications [3] | Diabetogenicity [3]
1 | NC(N)=NCCC[C@H](N)C(=O)O [J-Factor, L-2-amino-5-diaminomethyleneamino-pentanoic acid] | Improvement in eye's central vision | A decrease in fatty tissue | Hair growth | Muscular hypertrophy | Improved tone and color of facial skin | showed no complications such as Joint | Non-antigenic | Non-diabetogenic | – | – | –
2 | Biosynthetic GH: biosynthetic Growth Hormone, comparator in the table | – | – | – | – | – | – | – | – | Antigenic | Joint swelling Carpal tunnel | Diabetogenic
